# Test results taken from patent publication US20250032490A1, “THERAPEUTIC REGIMENS FOR TREATMENT OF PAROXYSMAL NOCTURNAL HEMOGLOBINURIA” (Achillion Pharmaceuticals, Inc., priority 2017, published 2025).
# Key:
# [1] = Phase 2 study in PNH subjects: reticulocyte count; format: in vivo, human; conditions: Compound 1 100 mg TID + IV eculizumab
# Protocol: (§1) The starting dose of compound 1 is based upon group assignment. The Group 1 dose is 100mg three times daily (TID). The Group 2 dose is 150 mg TID. The Group 3 dose is 200 mg TID. The Group 4 dose will receive the optimal dose determined from Groups 1-3.
# All doses are taken approximately 15-30 minutes after completion of a meal or snack.
# This will be followed by a long-term extension phase.
# (§2) 2 subjects in the first dose level of 100 mg TID have been completed and data collected through 4 weeks. Data collected include lactate dehydrogenase (LDH) levels, hemoglobin levels, reticulocytes, PNH red blood cells (Type III) percentage, C3 Fragment Deposition percentage, and bilirubin levels and their changes from baseline.
# A reticulocyte count is a pharmacodynamic marker that is measured from blood drawn on Day 1, Week 1, Week 2, and Week 4 (FIGS. 15A & 15B and Table 17). A reticulocyte count measures the number of immature red blood cells in a blood sample. People who have PNH may have elevated reticulocyte counts because their bone marrow is producing a lot of new red blood cells.
# rabbit erythrocytes = assay: CAP-mediated hemolysis assay with rabbit erythrocytes; format: cell-based; conditions: Oryctolagus cuniculus, Erythrocyte; AP activity in vitro
# [2] = tested on: complement system alternative pathway; assay: CAP Wieslab assay (CAP-mediated TCC production); format: biochemical, human; conditions: AP activity in vitro
# [3] = tested on: C3 fragment deposition on rabbit erythrocytes; assay: C3 fragment deposition on rabbit erythrocytes (flow cytometry); format: cell-based; conditions: Oryctolagus cuniculus, Erythrocyte; 20% C5-depleted normal human serum; read-out: IC50, inhibition of C3 fragment deposition on rabbit erythrocytes
# Protocol: Rabbit erythrocytes, C5-depleted normal human serum (C5-Dpl NHS), gelatin veronal buffer (GVB) without Ca^++ and Mg (GVB^0), 100 mM MgCl2+100 mM EGTA (MgEGTA) were obtained from Complement Technology Inc. (Tyler, TX). GVB^0·MgEGTA was prepared by mixing GVB^0 and 100 mM MgEGTA in a 9:1 ratio. FITC-conjugated anti-C3c antibody (cat#ab4212) and Alexa Fluor® 647-conjugated anti human CD59 antibody (cat#: ab187769) were purchased from Abcam (Cambridge, MA).
# Reactions were incubated at 37° C. for 15 minutes, the reactions were quenched by addition of EDTA at a final concentration of 20 mM. Cells were stained with a FITC-conjugated anti-C3c antibody at a dilution of 1:200 and C3 fragment deposition on the surface of rabbit erythrocytes was assessed by flow cytometry with BD Accuri C6 cytometer (BD Biosciences, San Jose, CA). Forward and side scatter parameters were used to gate intact erythrocytes. Controls included cells labeled with FITC-conjugated antibody isotype control. IC50 values from each experiment were determined by curve-fitting of experimental data (the % C3 fragment-positive cells at increasing concentrations of inhibitor) to the four-parameter sigmoidal dose-response equation using non-linear regression analysis (Prism Software, GraphPad, La Jolla, CA).
# [4] = Phase 2 study in PNH subjects: lactate dehydrogenase levels; format: in vivo, human; conditions: Compound 1 100 mg TID + IV eculizumab
# Protocol: as §1
# All doses are taken approximately 15-30 minutes after completion of a meal or snack. […]
# as §2
# Lactate dehydrogenase is a pharmacodynamic marker that is measured from blood drawn on Day 1, Week 1, Week 2, and Week 4 (FIGS. 13A & 13B and Table 15). High levels of LDH in the blood can be an indication of hemolysis.
# [5] = subject 003-001, DAY 1 (baseline)
# [6] = subject 003-002, DAY 1 (baseline)
compound,measurement,setting,value
"CC(=O)c1nn(CC(=O)N2C[C@H](F)C[C@H]2C(=O)Nc2cccc(Br)n2)c2ccc(-c3cnc(C)nc3)cc12 [Compound 1, (2S,4R)-1-(2-(3-acetyl-5-(2-methylpyrimidin-5-yl)-1H-indazol-1-yl)acetyl)-N-(6-bromopyridin-2-yl)-4-fluoropyrrolidine-2-carboxamide]",RETICULOCYTES Observed,[1]; [5],159 10^9/L
same,RETICULOCYTES CFB (change from baseline),"[1]; subject 003-001, DAY 1",0 10^9/L
same,RETICULOCYTES CFB (change from baseline),"[1]; subject 003-001, WEEK 1",−39 10^9/L
same,RETICULOCYTES Observed,"[1]; subject 003-001, WEEK 1",120 10^9/L
same,RETICULOCYTES CFB (change from baseline),"[1]; subject 003-001, WEEK 2",−34 10^9/L
same,RETICULOCYTES Observed,"[1]; subject 003-001, WEEK 2",125 10^9/L
same,RETICULOCYTES CFB (change from baseline),"[1]; subject 003-001, WEEK 4",−64 10^9/L
same,RETICULOCYTES Observed,"[1]; subject 003-001, WEEK 4",95 10^9/L
same,RETICULOCYTES Observed,[1]; [6],250 10^9/L
same,RETICULOCYTES CFB (change from baseline),"[1]; subject 003-002, DAY 1",0 10^9/L
same,RETICULOCYTES CFB (change from baseline),"[1]; subject 003-002, WEEK 1",−106 10^9/L
same,RETICULOCYTES Observed,"[1]; subject 003-002, WEEK 1",144 10^9/L
same,RETICULOCYTES CFB (change from baseline),"[1]; subject 003-002, WEEK 2",−85 10^9/L
same,RETICULOCYTES Observed,"[1]; subject 003-002, WEEK 2",165 10^9/L
same,RETICULOCYTES CFB (change from baseline),"[1]; subject 003-002, WEEK 4",−118 10^9/L
same,RETICULOCYTES Observed,"[1]; subject 003-002, WEEK 4",132 10^9/L
same,IC50,rabbit erythrocytes,27 nM
same,IC50,[2],26 nM
same,IC50,[3],96 ± 21 nM
same,LDH Observed,[4]; [5],357 U/L
same,LDH CFB (change from baseline),"[4]; subject 003-001, DAY 1",0 U/L
same,LDH CFB (change from baseline),"[4]; subject 003-001, WEEK 1",−83 U/L
same,LDH Observed,"[4]; subject 003-001, WEEK 1",274 U/L
same,LDH CFB (change from baseline),"[4]; subject 003-001, WEEK 2",−105 U/L
same,LDH Observed,"[4]; subject 003-001, WEEK 2",252 U/L
same,LDH CFB (change from baseline),"[4]; subject 003-001, WEEK 4",−86 U/L
same,LDH Observed,"[4]; subject 003-001, WEEK 4",271 U/L
same,LDH Observed,[4]; [6],210 U/L
same,LDH CFB (change from baseline),"[4]; subject 003-002, DAY 1",0 U/L
same,LDH CFB (change from baseline),"[4]; subject 003-002, WEEK 1",−52 U/L
same,LDH Observed,"[4]; subject 003-002, WEEK 1",158 U/L
same,LDH CFB (change from baseline),"[4]; subject 003-002, WEEK 2",−40 U/L
same,LDH Observed,"[4]; subject 003-002, WEEK 2",170 U/L
same,LDH CFB (change from baseline),"[4]; subject 003-002, WEEK 4",−31 U/L
same,LDH Observed,"[4]; subject 003-002, WEEK 4",179 U/L
